For 28 compounds, IC50 results are on record in patent US9493432B2, “Cyclopentylbenzamide derivatives and their use for the treatment of psychotic and cognitive disorders” (Takeda Pharmaceutical Company Limited, priority 2013, dated 2016).

One assay addresses human orexin receptor 1 (Homo sapiens (Human), UniProt O43613). Nature of the assay: Orexin antagonist activity, intracellular calcium FLIPR assay (orexin receptor 1). In kind it is cell-based. The following applies: RBL-2H3 cells stably expressing human orexin receptor 1; Ca2+ dye FLIPR; compound 15 minutes before orexin-A at approximately 80% maximal response; read-out: Human Orexin1R IC50. The method, then: (§1) Orexin antagonist activity was determined by measuring changes in intracellular calcium levels using a Ca^2+ sensitive fluorescent dye. The changes in fluorescent signal were monitored by Fluorescent Imaging Plate Reader (FLIPR™) technology available from Molecular Devices, LLC, U.S.A. Orexin mediated increases in intracellular Ca^2+ concentration were readily detected upon activation with orexin-A. Twenty-four hours prior to the assay, RBL-2H3 cells stably expressing either human orexin receptor 1 or human orexin receptor 2 were seeded in cell culture medium in black, clear-bottom 384-well plates (commercially available from Corning Inc., U.S.A.) and grown overnight at 37° C., 5% CO2. On the day of the assay, cell culture media was removed and cells were loaded with Calcium 5 Dye (commercially sold by Molecular Devices, LLC, U.S.A.) for 1 hour at 37° C., 5% CO2. Test compounds (at 10 point half log concentration response curves from 10 μM) were added to cells for 15 minutes prior to the addition of orexin-A to all wells, to achieve a final concentration that produces approximately an 80% maximal response. The IC50 values were determined from ten point concentration response curves. Curves were generated using the average of two wells for each data point.
(In general: Calcium flux is commonly read through the fluorescence of an indicator in the cells.)

The target of the next assay is human orexin receptor 2 (Homo sapiens (Human), UniProt O43614). Nature of the assay: Orexin antagonist activity, intracellular calcium FLIPR assay (orexin receptor 2). In kind it is cell-based. The note with it: RBL-2H3 cells stably expressing human orexin receptor 2; Ca2+ dye FLIPR; compound 15 minutes before orexin-A at approximately 80% maximal response; read-out: Human Orexin2R IC50. Here is the method: as §1
Chain of human orexin receptor 2 (O43614 whole entry): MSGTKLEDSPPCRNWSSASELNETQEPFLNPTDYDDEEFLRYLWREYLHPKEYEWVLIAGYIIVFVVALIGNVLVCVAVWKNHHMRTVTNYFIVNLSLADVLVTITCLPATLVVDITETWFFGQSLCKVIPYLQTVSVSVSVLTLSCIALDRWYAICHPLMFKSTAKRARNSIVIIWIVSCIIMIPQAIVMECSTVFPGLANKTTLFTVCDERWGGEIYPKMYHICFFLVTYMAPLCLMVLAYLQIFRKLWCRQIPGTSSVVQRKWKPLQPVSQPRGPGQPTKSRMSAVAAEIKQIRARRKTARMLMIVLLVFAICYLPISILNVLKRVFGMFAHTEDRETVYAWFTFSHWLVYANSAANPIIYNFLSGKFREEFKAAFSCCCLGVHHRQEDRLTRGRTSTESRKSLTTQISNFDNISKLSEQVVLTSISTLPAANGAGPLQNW

Where only a bound is given, the exact number is not on record here.

Chain of human orexin receptor 1 (O43613 whole entry): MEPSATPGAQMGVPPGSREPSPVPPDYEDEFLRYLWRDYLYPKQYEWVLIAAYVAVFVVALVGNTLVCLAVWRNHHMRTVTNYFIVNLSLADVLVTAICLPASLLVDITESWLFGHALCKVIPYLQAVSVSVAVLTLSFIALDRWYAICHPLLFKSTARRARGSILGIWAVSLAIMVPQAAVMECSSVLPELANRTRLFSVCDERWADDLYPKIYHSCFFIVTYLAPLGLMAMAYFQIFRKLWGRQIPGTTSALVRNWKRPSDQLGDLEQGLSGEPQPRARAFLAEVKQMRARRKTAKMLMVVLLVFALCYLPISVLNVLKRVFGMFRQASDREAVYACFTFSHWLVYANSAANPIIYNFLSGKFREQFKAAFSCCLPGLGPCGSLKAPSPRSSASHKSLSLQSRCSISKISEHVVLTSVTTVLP

Usually IC50 stands for the concentration that inhibits the measured activity by half. As for `O=C(N[C@H]1CCC[C@@H]1Nc1nc2ccc(F)cc2s1)c1ccccc1F` [Example 48, 2-Fluoro-N-[(1S,2S)-2-[(6-fluoro-1,3-benzothiazol-2-yl)amino]cyclopentyl]-benzamide], the IC50 at human orexin receptor 1 came to 160 nM; on human orexin receptor 2, 3700 nM.
For the compound `Cc1noc(-c2ccccc2C(=O)NC2CCC[C@@H]2Nc2nc3ccc(F)cc3o2)n1` (stereo in doubt) [Example 99, N-[(1S,2S)-2-[(6-Fluoro-1,3-benzoxazol-2-yl)amino]cyclopentyl]-2-(3-methyl-1,2,4-oxadiazol-5-yl)benzamide], the IC50 is 12 nM at human orexin receptor 1 and above 10000 nM on human orexin receptor 2.
With `CCOc1ccc(C)cc1C(=O)NC1CCCC1Cc1ccc2ccccc2n1` (centres unmarked) [Example 28, 2-Ethoxy-5-methyl-N-[2-(quinolin-2-ylmethyl)cyclopentyl]-benzamide], the IC50 on human orexin receptor 1 was found to be 140 nM; at human orexin receptor 2 it was 1900 nM.
In the case of `O=C(N[C@H]1CCCC1Nc1nc2ccc(F)cc2s1)c1ccccc1-n1nccn1` (stereo in doubt) [Example 75, N-[(1S,2R)-2-[(6-Fluoro-1,3-benzothiazol-2-yl)amino]cyclopentyl]-2-(2H-1,2,3-triazol-2-yl)benzamide], the IC50 came to 5 nM on human orexin receptor 1 and 260 nM at human orexin receptor 2.
Regarding `CCOc1ccc(C)cc1C(=O)NC1CCCC1Cc1ccc2ccccc2n1` (centres unmarked) [Example 31, 2-Ethoxy-5-methyl-N-(2-(quinolin-2-ylmethyl)cyclopentyl)-benzamide], the IC50 was found to be 92 nM at human orexin receptor 1 and 3300 nM at human orexin receptor 2.
Consider `Cc1ccc(-n2nccn2)c(C(=O)N[C@@H]2COC[C@@H]2Cc2nc3ccccc3s2)c1` (relative stereo) [Example 102, cis-N-[4-(1,3-Benzothiazol-2-ylmethyl)oxolan-3-yl]-5-methyl-2-(2H-1,2,3-triazol-2-yl)benzamide], for which the IC50 was 79 nM on human orexin receptor 1 and above 10000 nM on human orexin receptor 2.
On to `O=C(N[C@H]1CCC[C@@H]1Nc1nc2ccc(F)cc2s1)c1ccccc1Cl` [Example 37, 2-Chloro-N-[(1S,2S)-2-[(6-fluoro-1,3-benzothiazol-2-yl)amino]cyclopentyl]benzamide], for which the IC50 at human orexin receptor 1 was found to be 11 nM; on human orexin receptor 2, 3500 nM.
On the same counts, the results for `CN(C(=O)c1ccccc1Cl)[C@H]1CCC[C@@H]1Nc1nc2ccc(F)cc2s1` [Example 78, 2-Chloro-N-[(1S,2S)-2-[(6-fluoro-1,3-benzothiazol-2-yl)amino]cyclopentyl]-N-methylbenzamide] are 20 nM and 2400 nM.
As to `COc1ccc(F)cc1C(=O)N[C@H]1CCC[C@@H]1Nc1nc2ccc(F)cc2s1` [Example 53, 5-Fluoro-N-[(1S,2S)-2-[(6-fluoro-1,3-benzothiazol-2-yl)amino]cyclopentyl]-2-methoxybenzamide], the IC50 on human orexin receptor 1 stood at 280 nM; at human orexin receptor 2, 3300 nM.
Taken in the same sequence, the figures for `COc1cccc(OC)c1C(=O)N[C@H]1CCC[C@@H]1N(C)c1nc2ccc(F)cc2s1` [Example 8, N-[(1S,2S)-2-[(6-Fluoro-1,3-benzothiazol-2-yl)(methyl)amino]cyclopentyl]-2,6-dimethoxybenzamide] were 35 nM and 2100 nM.
On to `O=C(N[C@H]1CCC[C@@H]1Nc1nc2ccc(F)cc2s1)c1ccccc1-n1cncn1` [Example 44, N-[(1S,2S)-2-[(6-Fluoro-1,3-benzothiazol-2-yl)amino]cyclopentyl]-2-(1H-1,2,4-triazol-1-yl)benzamide], for which the IC50 on human orexin receptor 1 is 51 nM; at human orexin receptor 2, above 10000 nM.
As for `COc1cccc(OC)c1C(=O)N[C@H]1CCC[C@@H]1Nc1nc2ccccc2o1` [Example 9, N-[(1S,2S)-2-[(1,3-Benzoxazol-2-yl)amino]cyclopentyl]-2,6-dimethoxy-benzamide], the IC50 at human orexin receptor 1 is 99 nM; on human orexin receptor 2, above 10000 nM.
Regarding `O=C(N[C@H]1CCC[C@@H]1Nc1nc2ccc(F)cc2s1)c1ccccc1-c1ncccn1` [Example 40, N-[(1S,2S)-2-[(6-Fluoro-1,3-benzothiazol-2-yl)amino]cyclopentyl]-2-(pyrimidin-2-yl)benzamide], the results for the IC50 at human orexin receptor 1 and on human orexin receptor 2 were 15 nM and 3300 nM, respectively.
On the same counts, the results for `COc1c(F)cccc1C(=O)N[C@H]1CCC[C@@H]1Nc1nc2ccc(F)cc2s1` [Example 54, 3-Fluoro-N-[(1S,2S)-2-[(6-fluoro-1,3-benzothiazol-2-yl)amino]cyclopentyl]-2-methoxybenzamide] are 310 nM and 3500 nM.
On the same counts, the results for `O=C(N[C@H]1CCC[C@@H]1Nc1nc2ccc(F)cc2s1)c1c(Cl)cccc1-n1nccn1` [Example 71, 2-Chloro-N-[(1S,2S)-2-[(6-fluoro-1,3-benzothiazol-2-yl)amino]cyclopentyl]-6-(2H-1,2,3-triazol-2-yl)benzamide] are 24 nM and 4200 nM.
`COc1ccccc1C(=O)N[C@H]1CCC[C@@H]1Nc1nc2ccc(F)cc2s1` [Example 50, N-[(1S,2S)-2-[(6-Fluoro-1,3-benzothiazol-2-yl)amino]cyclopentyl]-2-methoxybenzamide]: the IC50 was found to be 190 nM at human orexin receptor 1 and 3400 nM at human orexin receptor 2.
On the same counts, the results for `COc1cccc(OC)c1C(=O)N[C@H]1CCC[C@@H]1Nc1nc2cc(F)ccc2o1` [Example 85, N-[(1S,2S)-2-[(5-Fluoro-1,3-benzoxazol-2-yl)amino]cyclopentyl]-2,6-dimethoxybenzamide] are 23 nM and above 10000 nM.
Taken in the same sequence, the figures for `O=C(N[C@H]1CCC[C@@H]1Nc1nc2ccc(F)cc2s1)c1cc(Cl)ccc1-n1cccn1` [Example 74, 5-Chloro-N-[(1S,2S)-2-[(6-fluoro-1,3-benzothiazol-2-yl)amino]cyclopentyl]-2-(1H-pyrazol-1-yl)benzamide] were 38 nM and 2100 nM.
As for `COc1cccc(OC)c1C(=O)N[C@@H]1CCC[C@H]1Nc1nc2ccccc2s1` [Example 11, N-[(1R,2R)-2-[(1,3-Benzothiazol-2-yl)amino]cyclopentyl]-2,6-dimethoxybenzamide], the IC50 on human orexin receptor 1 worked out at 360 nM; at human orexin receptor 2, 1800 nM.
As to `O=C(NC1CCC[C@@H]1Nc1nc2ccncc2s1)c1ccccc1-n1nccn1` (stereo in doubt) [Example 97, N-[(1S,2S)-2-({[1,3]Thiazolo[5,4-c]pyridin-2-yl}amino)cyclopentyl]-2-(2H-1,2,3-triazol-2-yl)benzamide], the values for the IC50 on human orexin receptor 1 and at human orexin receptor 2 were 780 nM and above 10000 nM, respectively.
Turning to `CC1(Nc2nc3ccc(F)cc3s2)CCCC1NC(=O)c1ccccc1-n1nccn1` (centres unmarked) [Example 107, N-{2-[(6-Fluoro-1,3-benzothiazol-2-yl)amino]-2-methylcyclopentyl}-2-(2H-1,2,3-triazol-2-yl)benzamide], the concentration for half-maximal inhibition (IC50) at human orexin receptor 1 is 7 nM; on human orexin receptor 2, 60 nM.
Consider `COc1cccc(OC)c1C(=O)N(C)[C@H]1CCC[C@@H]1Nc1nc2ccc(F)cc2s1` [Example 34, N-[(1S,2S)-2-[(6-Fluoro-1,3-benzothiazol-2-yl)amino]cyclopentyl]-2,6-dimethoxy-N-methylbenzamide], for which the IC50 was 4.7 nM at human orexin receptor 1 and 1100 nM on human orexin receptor 2.
Regarding `COc1cccc(OC)c1C(=O)N[C@H]1CC(F)C[C@H]1Nc1nc2ccc(Cl)cc2s1` (stereo in doubt) [Example 26, N-[(1S,2R)-2-[(6-Chloro-1,3-benzothiazol-2-yl)amino]-4-fluorocyclo-pentyl]-2,6-dimethoxybenzamide], the 50% inhibitory concentration (IC50) at human orexin receptor 1 was 64 nM; on human orexin receptor 2 it was above 10000 nM.
On the same counts, the results for `O=C(N[C@H]1CCC[C@@H]1Nc1nc2ccccc2s1)c1ccccc1-n1nccn1` [Example 90, N-[(1S,2S)-2-[(1,3-Benzothiazol-2-yl)amino]cyclopentyl]-2-(2H-1,2,3-triazol-2-yl)benzamide] are 16 nM and above 10000 nM.
Take `COc1cccc(OC)c1C(=O)N[C@H]1CCC[C@H]1Nc1nc2ccccc2s1` [Example 5, N-[(1S,2R)-2-[(1,3-Benzothiazol-2-yl)amino]cyclopentyl]-2,6-dimethoxybenzamide]: the IC50 came out at 12 nM on human orexin receptor 1 and 510 nM at human orexin receptor 2.
With `COc1cccc(OC)c1C(=O)N[C@@H]1COC[C@H]1Nc1nc2ccc(F)cc2s1` (relative stereo) [Example 65, trans-N-{4-[(6-Fluoro-1,3-benzothiazol-2-yl)amino]oxolan-3-yl}-2,6-dimethoxybenzamide], the IC50 on human orexin receptor 1 is 29 nM; at human orexin receptor 2, above 10000 nM.
Turning to `COc1ccc(C)cc1C(=O)N[C@H]1CCC[C@@H]1Nc1nc2ccc(F)cc2s1` [Example 67, N-[(1S,2S)-2-[(6-Fluoro-1,3-benzothiazol-2-yl)amino]cyclopentyl]-2-methoxy-5-methylbenzamide], the IC50 is 110 nM at human orexin receptor 1 and 6500 nM at human orexin receptor 2.
Turning to `CCOC(=O)N1CC(NC(=O)c2c(OC)cccc2OC)C(Nc2nc3ccc(Cl)cc3s2)C1` (stereo not drawn) [Example 23, Ethyl cis-3-[(6-Chloro-1,3-benzothiazol-2-yl)amino]-4-[(2,6-dimethoxy-benzene)amido]pyrrolidine-1-carboxylate], the IC50 at human orexin receptor 1 was determined as 65 nM; at human orexin receptor 2, 620 nM.
